Measured values: patent US6420330B1, “Use of quaternary carboxylic acid alkanolamine ester salts as microbicide agents” (Cognis Deutschland GmbH, priority 1997, dated 2002)

Columns and labels:
Type in all cases: cell-based
[1] = tested on: Trichophyton mentagrophytes; assay: DGHM suspension test, other bacteria and fungi
Protocol: (§1) The effectiveness of the compound to be tested was determined by the suspension test in accordance with the guidelines of the Deutsche Gesellschaft for Hygiene and Mikrobiologie (DGHM). Test solutions containing quatemary carboxylic acid alkanolamine ester salts in the quantities shown in the Tables of 50, 100, 200, 400 and 800 mg/l were prepared using water with a hardness of 17° dH and optionally isopropanol. At room temperatures, quantities of 0.1 ml test germ suspension were pipetted into test tubes containing 10 ml of the test solutions described above and mixed. After various contact times of 5, 15, 30 and 60 minutes, 1 ml of material was taken from the test tubes by pipette and transferred to 9 ml inactivator solution (inactivators: 3.0% Tween, 0.3% lecithin, 0.1% histidine). After in activation for at least 5 and at most 30 minutes, the living germ count was determined by plating out onto casein peptone-soybean flour peptone (CaSo)-agar plates. Using a spiral plater, the inactivating mixture was directly plated out onto CaSo-agar. The samples were incubated for 24 to 72 hours at 37° C. and macroscopically evaluated for growth. The destruction time or the residual germ count was determined in this way. The germ count of an unchallenged water control is related to the germ count of the inactivated test solution taking the dilution into account. The higher the value, the better the microbicidal effect. The symbol < means that the logarithmic reductuon factor is below the indicated value or, in the case of the symbol >, above the indicated value. The abbreviation CU stands for “concentration used”. Methyl triethanolammonium dioctanoic acid ester methosulfate was tested as in A) against the bacteria

[2] = tested on: Enterococcus faecium; assay: DGHM suspension test, other bacteria and fungi
Protocol: as §1

[3] = tested on: Escherichia coli; assay: DGHM suspension test, other bacteria and fungi
Protocol: as §1

[4] = tested on: Microsporum gypseum; assay: DGHM suspension test, other bacteria and fungi
Protocol: as §1

[5] = tested on: Salmonella enteritidis; assay: DGHM suspension test, other bacteria and fungi
Protocol: as §1

[6] = tested on: Candida albicans ATCC 10231; assay: DGHM suspension test, microbicidal activity
Summary of the method: (§2)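 DGHM suspension test at room temperature: 0.1 ml germ suspension into 10 ml test solution (50–800 mg/l in 17° dH water, optionally isopropanol). After 5, 15, 30 and 60 minutes contact, samples inactivated (Tween/lecithin/histidine), plated on CaSo-agar, incubated 24–72 hours at 37° C. Log reduction versus unchallenged water control.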

[7] = tested on: Staphylococcus aureus ATCC 6538; assay: DGHM suspension test, microbicidal activity
Summary of the method: as §2

[8] = tested on: Pseudomonas aeruginosa ATCC 15442; assay: DGHM suspension test, microbicidal activity
Summary of the method: as §2

[9] = CU 50 mg/l, contact time 5 mins.
[10] = CU 50 mg/l, contact time 15 mins.
[11] = CU 50 mg/l, contact time 30 mins.
[12] = CU 50 mg/l, contact time 60 mins.
[13] = CU 100 mg/l, contact time 5 mins.
[14] = CU 100 mg/l, contact time 15 mins.
[15] = CU 100 mg/l, contact time 30 mins.
[16] = CU 100 mg/l, contact time 60 mins.
[17] = CU 200 mg/l, contact time 5 mins.
[18] = CU 200 mg/l, contact time 15 mins.
[19] = CU 200 mg/l, contact time 30 mins.
[20] = CU 200 mg/l, contact time 60 mins.
[21] = CU 400 mg/l, contact time 5 mins.
[22] = CU 400 mg/l, contact time 15 mins.
[23] = CU 400 mg/l, contact time 30 mins.
[24] = CU 400 mg/l, contact time 60 mins.
[25] = CU 800 mg/l, contact time 5 mins.
[26] = CU 800 mg/l, contact time 15 mins.
[27] = CU 800 mg/l, contact time 30 mins.
[28] = CU 800 mg/l, contact time 60 mins.

CCCCCCCC(=O)OCC[N+](C)(CCO)CCOC(=O)CCCCCCC.COS(=O)(=O)[O-] [Example 11, Methyl triethanolammonium dioctanoic acid ester methosulfate]
logarithmic reduction rate ([1]; 50 ppm, 5 Mins.): 0.34 | logarithmic reduction rate ([1]; 50 ppm, 15 Mins.): 0.95 | logarithmic reduction rate ([1]; 50 ppm, 60 Mins.): 2.04 | logarithmic reduction rate ([1]; 100 ppm, 5 Mins.): 0.38 | logarithmic reduction rate ([1]; 100 ppm, 15 Mins.): 0.95 | logarithmic reduction rate ([1]; 100 ppm, 60 Mins.): 2.05 | logarithmic reduction rate ([1]; 200 ppm, 5 Mins.): 0.28 | logarithmic reduction rate ([1]; 200 ppm, 15 Mins.): 0.92 | logarithmic reduction rate ([1]; 200 ppm, 60 Mins.): 2.16 | logarithmic reduction rate ([1]; 400 ppm, 5 Mins.): 0.35 | logarithmic reduction rate ([1]; 400 ppm, 15 Mins.): 0.89 | logarithmic reduction rate ([1]; 400 ppm, 60 Mins.): 2.29 | destruction of Trichophyton mentagrophytes ([1]; long contact time (60 minutes)): around 2 powers of ten | logarithmic reduction rate ([2]; 50 ppm, 5 Mins.): >6.3 | logarithmic reduction rate ([2]; 50 ppm, 15 Mins.): >5.88 | logarithmic reduction rate ([2]; 50 ppm, 60 Mins.): >5.96 | logarithmic reduction rate ([2]; 100 ppm, 5 Mins.): >6.3 | logarithmic reduction rate ([2]; 100 ppm, 15 Mins.): >5.88 | logarithmic reduction rate ([2]; 100 ppm, 60 Mins.): >5.96 | logarithmic reduction rate ([2]; 200 ppm, 5 Mins.): >6.3 | logarithmic reduction rate ([2]; 200 ppm, 15 Mins.): >5.88 | logarithmic reduction rate ([2]; 200 ppm, 60 Mins.): >5.96 | logarithmic reduction rate ([2]; 400 ppm, 5 Mins.): >6.3 | logarithmic reduction rate ([2]; 400 ppm, 15 Mins.): >5.88 | logarithmic reduction rate ([2]; 400 ppm, 60 Mins.): >5.96 | logarithmic reduction rate ([3]; 50 ppm, 5 Mins.): 4.12 | logarithmic reduction rate ([3]; 50 ppm, 15 Mins.): >5.62 | logarithmic reduction rate ([3]; 50 ppm, 60 Mins.): >5.76 | logarithmic reduction rate ([3]; 100 ppm, 5 Mins.): >5.58 | logarithmic reduction rate ([3]; 100 ppm, 15 Mins.): >5.62 | logarithmic reduction rate ([3]; 100 ppm, 60 Mins.): >5.76 | logarithmic reduction rate ([3]; 200 ppm, 5 Mins.): >5.58 | logarithmic reduction rate ([3]; 200 ppm, 15 Mins.): >5.62 | logarithmic reduction rate ([3]; 200 ppm, 60 Mins.): >5.76 | logarithmic reduction rate ([3]; 400 ppm, 5 Mins.): >5.58 | logarithmic reduction rate ([3]; 400 ppm, 15 Mins.): >5.62 | logarithmic reduction rate ([3]; 400 ppm, 60 Mins.): >5.76 | logarithmic reduction rate ([4]; 50 ppm, 5 Mins.): >3.52 | logarithmic reduction rate ([4]; 50 ppm, 15 Mins.): >3.58 | logarithmic reduction rate ([4]; 50 ppm, 60 Mins.): >3.62 | logarithmic reduction rate ([4]; 100 ppm, 5 Mins.): >3.52 | logarithmic reduction rate ([4]; 100 ppm, 15 Mins.): >3.58 | logarithmic reduction rate ([4]; 100 ppm, 60 Mins.): >3.62 | logarithmic reduction rate ([4]; 200 ppm, 5 Mins.): >3.52 | logarithmic reduction rate ([4]; 200 ppm, 15 Mins.): >3.58 | logarithmic reduction rate ([4]; 200 ppm, 60 Mins.): >3.62 | logarithmic reduction rate ([4]; 400 ppm, 5 Mins.): >3.52 | logarithmic reduction rate ([4]; 400 ppm, 15 Mins.): >3.58 | logarithmic reduction rate ([4]; 400 ppm, 60 Mins.): >3.62 | killing of the fungus Microsporum gypseum ([4]; concentration of 50 mg/l, shortest contact time): almost completely killed off | logarithmic reduction rate ([5]; 50 ppm, 5 Mins.): <1.8 | logarithmic reduction rate ([5]; 50 ppm, 15 Mins.): 3.29 | logarithmic reduction rate ([5]; 50 ppm, 60 Mins.): 3.67 | logarithmic reduction rate ([5]; 100 ppm, 5 Mins.): 3.96 | logarithmic reduction rate ([5]; 100 ppm, 15 Mins.): 5.12 | logarithmic reduction rate ([5]; 100 ppm, 60 Mins.): >5.76 | logarithmic reduction rate ([5]; 200 ppm, 5 Mins.): 4.88 | logarithmic reduction rate ([5]; 200 ppm, 15 Mins.): >5.77 | logarithmic reduction rate ([5]; 200 ppm, 60 Mins.): >5.76 | logarithmic reduction rate ([5]; 400 ppm, 5 Mins.): >5.8 | logarithmic reduction rate ([5]; 400 ppm, 15 Mins.): >5.72 | logarithmic reduction rate ([5]; 400 ppm, 60 Mins.): >5.76

trimethyl ethanolammonium coconut fatty acid ester methosulfate [Example 4]
logarithmic reduction factor [6, 9]: <0.80 | logarithmic reduction factor [6, 10]: <0.79 | logarithmic reduction factor [6, 11]: 0.91 | logarithmic reduction factor [6, 12]: 1.40 | logarithmic reduction factor [6, 13]: 1.19 | logarithmic reduction factor [6, 14]: 3.01 | logarithmic reduction factor [6, 15]: >4.80 | logarithmic reduction factor [6, 16]: >5.05 | logarithmic reduction factor [6, 17]: 3.43 | logarithmic reduction factor [6, 18]: >4.79 | logarithmic reduction factor [6, 19]: >4.80 | logarithmic reduction factor [6, 20]: >5.05 | logarithmic reduction factor [6, 21]: >4.80 | logarithmic reduction factor [6, 22]: >4.79 | logarithmic reduction factor [6, 23]: >4.80 | logarithmic reduction factor [6, 24]: >5.05 | logarithmic reduction factor [6, 25]: >4.80 | logarithmic reduction factor [6, 26]: >4.79 | logarithmic reduction factor [6, 27]: >4.80 | logarithmic reduction factor [6, 28]: >5.05 | logarithmic reduction factor [7, 9]: <1.51 | logarithmic reduction factor [7, 10]: <1.36 | logarithmic reduction factor [7, 11]: <1.38 | logarithmic reduction factor [7, 12]: 1.94 | logarithmic reduction factor [7, 13]: <1.51 | logarithmic reduction factor [7, 14]: 1.78 | logarithmic reduction factor [7, 15]: 3.03 | logarithmic reduction factor [7, 16]: 4.02 | logarithmic reduction factor [7, 17]: <1.51 | logarithmic reduction factor [7, 18]: 3.4 | logarithmic reduction factor [7, 19]: 4.38 | logarithmic reduction factor [7, 20]: >5.26 | logarithmic reduction factor [7, 21]: 2.33 | logarithmic reduction factor [7, 22]: 4.14 | logarithmic reduction factor [7, 23]: >5.38 | logarithmic reduction factor [7, 24]: >5.26 | logarithmic reduction factor [7, 25]: 3.12 | logarithmic reduction factor [7, 26]: >5.36 | logarithmic reduction factor [7, 27]: >5.38 | logarithmic reduction factor [7, 28]: >5.26 | logarithmic reduction factor [8, 9]: <1.51 | logarithmic reduction factor [8, 10]: <1.66 | logarithmic reduction factor [8, 11]: <1.46 | logarithmic reduction factor [8, 12]: <1.47 | logarithmic reduction factor [8, 13]: <1.51 | logarithmic reduction factor [8, 14]: <1.66 | logarithmic reduction factor [8, 15]: <1.46 | logarithmic reduction factor [8, 16]: <1.47 | logarithmic reduction factor [8, 17]: <1.51 | logarithmic reduction factor [8, 18]: <1.66 | logarithmic reduction factor [8, 19]: <1.46 | logarithmic reduction factor [8, 20]: <3.35 | logarithmic reduction factor [8, 21]: <1.51 | logarithmic reduction factor [8, 22]: 3.9 | logarithmic reduction factor [8, 23]: >5.66 | logarithmic reduction factor [8, 24]: >5.47 | logarithmic reduction factor [8, 25]: 4.02 | logarithmic reduction factor [8, 26]: >5.66 | logarithmic reduction factor [8, 27]: >5.66 | logarithmic reduction factor [8, 28]: >5.47
